Test results published in patent EP4603105A1, “PHARMACEUTICAL COMPOSITION CONTAINING CYCLIC COMPOUND HAVING SELECTIVE KRAS INHIBITORY EFFECT AGAINST HRAS AND NRAS” (CHUGAI SEIYAKU KABUSHIKI KAISHA, priority 2022, dated 2024).
Where a SMILES comes first, the peptide text is derived from it. Bridges are numbered along the chain shown (N, C = ends). [ ]: non-standard residue; d: D form. The star is where a group is joined. hPhe(3-Cl-4-CF3) = N[C@@H](CCc1ccc(C(F)(F)F)c(Cl)c1)C(=O)O; NEtPhe(4-Me) = CCN[C@@H](Cc1ccc(C)cc1)C(=O)O; NMeGly(cPent) = CN[C@H](C(=O)O)C1CCCC1; Hyp = O=C(O)[C@@H]1C[C@@H](O)CN1; NMeD = CN[C@@H](CC(=O)O)C(=O)O; NMeL = CN[C@@H](CC(C)C)C(=O)O; Morpholide = C1CN(*)CCO1; Ac5c = NC1(C(=O)O)CCCC1; X4 = C1CCC(*)OC1; Sar = CNCC(=O)O

Legend:
[1] = biological target: GDP-bound NRAS wild-type protein (Homo sapiens, UniProt P01111); test: Binding to NRAS by surface plasmon resonance (SPR), KD and KD ratio to KRAS
Sequence of GDP-bound NRAS wild-type protein (P01111 whole entry): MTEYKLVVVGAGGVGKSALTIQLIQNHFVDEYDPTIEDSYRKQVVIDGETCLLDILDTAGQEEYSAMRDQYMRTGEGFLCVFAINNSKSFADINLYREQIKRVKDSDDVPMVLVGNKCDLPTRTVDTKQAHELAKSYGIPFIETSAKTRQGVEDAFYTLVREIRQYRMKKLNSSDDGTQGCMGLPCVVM
How it was run: (§1)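 GDP-loaded biotinylated Avi-tag RAS proteins (E. coli-expressed) captured on a Biotin CAPture chip at ~100–300 RU; single-cycle kinetics at 30°C, 100 µL/min, 75 s injections of rising compound concentrations. HBS pH 7.4 running buffer with 1 mM DTT, 10 mM MgCl2, 10 µM GDP, 4% DMSO. KD from 1:1 binding fit.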

HRAS wild-type protein = HRAS wild-type protein (Homo sapiens, UniProt P01112); test: Binding to HRAS by surface plasmon resonance (SPR), KD and KD ratio to KRAS
Sequence of HRAS wild-type protein (P01112 whole entry): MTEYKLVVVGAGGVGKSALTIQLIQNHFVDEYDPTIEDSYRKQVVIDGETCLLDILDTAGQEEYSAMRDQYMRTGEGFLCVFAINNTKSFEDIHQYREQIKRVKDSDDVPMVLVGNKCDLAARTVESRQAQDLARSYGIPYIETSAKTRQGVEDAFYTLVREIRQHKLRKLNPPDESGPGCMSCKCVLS
How it was run: as §1

[2] = system: human lung cancer strain NCI-H441; format: cell-based
How it was run: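 Readout: […] after the ATP-based reagent. Compound: serial dilutions in dimethyl sulfoxide.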

[3] = biological target: GDP-bound KRAS wild-type protein (Homo sapiens, UniProt P01116); test: Binding to KRAS by surface plasmon resonance (SPR), dissociation constant KD
Sequence of GDP-bound KRAS wild-type protein (P01116 1-188 isoform P01116-2): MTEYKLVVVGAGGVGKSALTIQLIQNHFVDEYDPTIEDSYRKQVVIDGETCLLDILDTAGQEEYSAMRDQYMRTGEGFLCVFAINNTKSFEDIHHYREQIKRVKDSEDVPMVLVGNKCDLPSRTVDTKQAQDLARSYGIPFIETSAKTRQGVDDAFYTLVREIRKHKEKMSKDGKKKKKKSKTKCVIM
How it was run: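 Single-cycle kinetics on GDP-loaded biotin-Avi RAS captured to ~100–300 RU; 75 s ascending injections, 100 µL/min, 30°C. HBS pH 7.4 + 10 mM MgCl2/10 µM GDP/4% DMSO. 1:1 fit, KD.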

[4] = ratio of KD for GDP-bound NRAS wild-type protein to KD for KRAS
[5] = ratio of KD for HRAS wild-type protein to KD for KRAS
[6] = ratio of the KD value with respect to GDP-bound NRAS wild-type protein to the KD value with respect to KRAS
[7] = ratio of the KD value with respect to HRAS wild-type protein to the KD value with respect to KRAS
[8] = Single Cycle Kinetics, 1:1 binding model

| SMILES | IC50 [2] | Kd ([3]; 1:1 binding model) | Kd [3, 8] | Kd ([3]; Single Cycle Kinetics) | NRAS /KRAS [1, 4] | HRAS /KRAS (HRAS wild-type protein; [5]) | NRAS /KRAS [1, 6] | HRAS /KRAS (HRAS wild-type protein; [7]) |
| --- | --- | --- | --- | --- | --- | --- | --- | --- |
| CC[C@H](C)[C@@H]1NC(=O)[C@H](CC(C)C)N(C)C(=O)C[C@@H](C(=O)N2CCOCC2)N(C)C(=O)[C@H](C2CCCC2)N(C)C(=O)C2(CCCC2)NC(=O)[C@@H]2C[C@@H](OC3CCCCO3)CN2C(=O)[C@H](CCc2ccc(C(F)(F)F)c(Cl)c2)NC(=O)CN(C)C(=O)[C@H](Cc2ccc(C)cc2)N(CC)C(=O)CN(C)C(=O)CN(C)C1=O (stereo partly drawn) [PP0068] ([NMeL]I[Sar][Sar][NEtPhe(4-Me)][Sar][hPhe(3-Cl-4-CF3)][Hyp](X4)[Ac5c][NMeGly(cPent)][NMeD]-Morpholide; lactam N-11) | 9.1 nM | 0.14 nM |  |  | C (A compound having a KD ratio of 0.1 or more and less than 3 is denoted as C) | C (A compound having a KD ratio of 0.1 or more and less than 3 is denoted as C) |  |  |
| CCO[C@@H]1C[C@H]2C(=O)NC3(CCC3)C(=O)N(C)[C@@H](C3CCCC3)C(=O)N(C)[C@H](C(=O)N3CCOCC3)CC(=O)N(C)[C@@H](Cc3ccccc3)C(=O)N[C@@H]([C@@H](C)CC)C(=O)N(C)CC(=O)N(C)[C@H]3CCCCCN(C3=O)[C@@H](Cc3ccc(C(F)(F)F)cc3)C(=O)N(C)CC(=O)N[C@@H](CCc3cc(F)c(C(F)(F)F)c(F)c3)C(=O)N2C1 [PP0687] | 44.1 nM |  | 0.64 nM |  |  |  | B (a compound having 3 or more and less than 10 is denoted as B) | B (a compound having 3 or more and less than 10 is denoted as B) |
| CCO[C@@H]1C[C@H]2C(=O)NC(C)(C)C(=O)N(C)[C@@H](C3CCCC3)C(=O)N(CC)[C@H](C(=O)N3CCOCC3)CC(=O)N(C)[C@@H](CC(C)C)C(=O)N[C@@H]([C@@H](C)CC)C(=O)N(C)CC(=O)N(C)[C@H]3CCCCCN(C3=O)[C@@H](Cc3ccc(C(F)(F)F)cc3)C(=O)N(C)CC(=O)N[C@@H](CCc3cc(F)c(C(F)(F)F)c(F)c3)C(=O)N2C1 [PP0958] | 1040 nM |  |  | 7.5 nM | B (a compound having 3 or more and less than 10 is denoted as B) | B (a compound having 3 or more and less than 10 is denoted as B) |  |  |

Continued, in another order:

| IC50 [2] | Kd ([3]; 1:1 binding model) | Kd [3, 8] | Kd ([3]; Single Cycle Kinetics) | SMILES | NRAS /KRAS [1, 4] | HRAS /KRAS (HRAS wild-type protein; [5]) | NRAS /KRAS [1, 6] | HRAS /KRAS (HRAS wild-type protein; [7]) |
| --- | --- | --- | --- | --- | --- | --- | --- | --- |
| 29.3 nM | 0.57 nM |  |  | CCC(CC)[C@H]1C(=O)N(C)[C@H](C(=O)N(C)C)CC(=O)N(C)[C@@H](COC)C(=O)N[C@@H]([C@@H](C)CC)C(=O)N(C)CC(=O)N(C)[C@H]2C/C=C\CCN(C2=O)[C@@H](Cc2ccc(C)cc2)C(=O)N(C)CC(=O)N[C@@H](CCc2ccc(C(F)(F)F)c(Cl)c2)C(=O)N2CCCCC[C@H]2C(=O)NC2(CC(C)(C)C2)C(=O)N1C [PP2966] | A (a compound having 10 or more and less than 20 is denoted as A) | A (a compound having 10 or more and less than 20 is denoted as A) |  |  |
| 19.5 nM |  | 0.98 nM |  | CCO[C@@H]1C[C@H]2C(=O)NC3(CCC3)C(=O)N(C)[C@@H](C3CCCC3)C(=O)N(C)[C@H](C(=O)N(C)CC)CC(=O)N(C)[C@H]3CCCCCCc4ccc(cc4)C[C@@H](C(=O)N(C)CC(=O)N[C@@H](CCc4ccc(C(F)(F)F)c(OC)c4)C(=O)N2C1)N1CC/C=C\C[C@@H](C1=O)N(C)C(=O)CN(C)C(=O)[C@H]([C@@H](C)CC)NC3=O [PP2263] |  |  | A (a compound having 10 or more and less than 20 is denoted as A) | A (a compound having 10 or more and less than 20 is denoted as A) |
| 6.9 nM |  | 0.066 nM |  | CC[C@H](C)[C@@H]1NC(=O)[C@H](CC(C)C)N(C)C(=O)C[C@@H](C(=O)N2CCOCC2)N(C)C(=O)[C@H](C2CCCC2)N(C)C(=O)C2(CCCC2)NC(=O)[C@@H]2CCCN2C(=O)[C@H](CCc2ccc(C(F)(F)F)c(Cl)c2)NC(=O)CN(C)C(=O)[C@H](Cc2ccc(Cl)cc2)N2CCCC[C@@H](C2=O)N(C)C(=O)CN(C)C1=O [PP0532] |  |  | C (A compound having a KD ratio of 0.1 or more and less than 3 is denoted as C) | B (a compound having 3 or more and less than 10 is denoted as B) |
